According to patent publication US11400063B2, “Early administration of low-dose colchicine after myocardial infarction” (INSTITUT DE CARDIOLOGIE DE MONTREAL, priority 2019, dated 2022):

Tested on: patients recruited within 30 days after a myocardial infarction
Test: COLCOT time-to-treatment initiation (TTI) analysis
Assay type: in vivo, human
Experimental: (§1) The results of the COLCOT trial have been further analyzed to determine if time to treatment initiation (TTI) had any effect on the outcome of the treatment. Three different cutoffs for TTI were used in order to determine the association between early initiation of therapy and clinical outcomes. These cutoffs were determined based on the usual journey of patients with MI. The first 30-day post-MI timeline was divided into three independent periods of time, and analyzed as such: from day 0 to 3, referring to in-hospital management; from day 4 to 7, referring to early post-discharge period and from day 8 to 30, referring to late post-discharge period.
COLCOT was an international multicenter, randomized, double-blinded trial that randomly assigned patients to receive either low-dose colchicine (0.5 mg once daily) or placebo. The study protocol and main results have been published (see, Tardif et al., N Engl J Med 2019). […] Main exclusion criteria were severe heart failure, reduced left ventricular ejection fraction (<35%), recent stroke (<3 months), type 2 MI, recent (<3 years) or planned coronary artery bypass graft (CABG), history of cancer (<3 years), and inflammatory bowel disease or chronic diarrhea. All patients enrolled in the trial benefited from percutaneous coronary intervention whenever indicated and guidelines-directed management of CV disease prior to randomization (see. Tardif et al., N Engl J Med 2019).
The primary efficacy endpoint was a composite of CV death, resuscitated cardiac arrest, MI, stroke, or urgent hospitalization for angina requiring coronary revascularization. The secondary endpoints consisted of the components of the primary efficacy endpoint, all-cause death, and a composite of CV death, resuscitated cardiac arrest, MI, or stroke. Exploratory endpoints included all coronary revascularizations, including both elective and urgent coronary revascularizations.
as §1, with “Three” for “The results of the COLCOT trial have been further analyzed to determine if time to treatment initiation (TTI) had any effect on the outcome of the treatment. Three”
Both the TTI of less than 4 days and the TTI of less than 5 days was were calculated using a basic model (Table 4 and Table 6) as well as an adjusted model (Table 5 and Table 7) which is described below in the statistical analysis section. In all cases, the interaction p-value was not significant (p>0.05), meaning that the conclusion over Placebo vs. Colchicine group can be obtained directly from the respective p-values for HR. In other words, relationships within the placebo and colchicine groups with TTI are both linear/parallel and the interpretation is straightforward.
For the present TTI analysis, the data were centrally analyzed by an independent academic biostatistics center at the Montreal Health Innovations Coordinating Center. The analysis was conducted amongst patients who received at least one dose of the study medication (referred to as the safety population in the main protocol, FIG. 1). TTI was defined as the length of time in days between the index MI and the initiation of the study medication, and three specific cutoffs were analyzed ([…], days 4 to […]). Early initiation of therapy was defined as TTI≤3 days. Baseline characteristics were summarized using counts and percentages for categorical variables and mean±standard deviation (SD) for continuous variables. For each baseline characteristic, comparisons were made using ANOVA for continuous variables and Chi-Square test for categorical variables according to TTI strata. […]

[1] = TTI 4-7 days, colchicine vs. placebo
[2] = TTI ≥ 8 days, colchicine vs. placebo
[3] = delay between randomization and index MI [0-4] days
[4] = delay between randomization and index MI [0-5] days
[5] = delay between randomization and index MI [5-30] days
[6] = delay between randomization and index MI [6-30] days

COc1cc2c(c(OC)c1OC)-c1ccc(OC)c(=O)cc1[C@@H](NC(C)=O)CC2 [Colchicine, colchicine]
Secondary Composite Endpoint, HR (95% CI) [1]: 1.04 (0.53-2.03); p = 0.919
Stroke, HR (95% CI) [1]: 0.28 (0.03-2.71); p = 0.272
Urgent hospitalization for angina requiring coronary revascularization, HR (95% CI) [1]: 0.63 (0.18-2.24); p = 0.476
All Coronary Revascularizations, % of patients (TTI ≥ 8 days, N = 2748): 5.3%
All Coronary Revascularizations, no. of patients (TTI ≥ 8 days, N = 2748): 72 no.
All-cause death, % of patients (TTI ≥ 8 days, N = 2748): 1.9%
All-cause death, no. of patients (TTI ≥ 8 days, N = 2748): 26 no.
MI, % of patients (TTI ≥ 8 days, N = 2748): 3.8%
MI, no. of patients (TTI ≥ 8 days, N = 2748): 52 no.
Primary composite endpoint, % of patients (TTI ≥ 8 days, N = 2748): 5.7%
Primary composite endpoint, no. of patients (TTI ≥ 8 days, N = 2748): 77 no.
Resuscitated cardiac arrest, % of patients (TTI ≥ 8 days, N = 2748): 0.1%
Resuscitated cardiac arrest, no. of patients (TTI ≥ 8 days, N = 2748): 2 no.
Secondary Composite Endpoint, % of patients (TTI ≥ 8 days, N = 2748): 4.9%
Secondary Composite Endpoint, no. of patients (TTI ≥ 8 days, N = 2748): 67 no.
Stroke, % of patients (TTI ≥ 8 days, N = 2748): 0.1%
Stroke, no. of patients (TTI ≥ 8 days, N = 2748): 2 no.
Urgent hospitalization for angina requiring coronary revascularization, % of patients (TTI ≥ 8 days, N = 2748): 1.1%
Urgent hospitalization for angina requiring coronary revascularization, no. of patients (TTI ≥ 8 days, N = 2748): 15 no.
All Coronary Revascularizations, HR (95% CI) [2]: 0.81 (0.59-1.10); p = 0.172
All-cause death, HR (95% CI) [2]: 0.90 (0.53-1.51); p = 0.684
MI, HR (95% CI) [2]: 0.93 (0.64-1.35); p = 0.710
Primary composite endpoint, HR (95% CI) [2]: 0.82 (0.61-1.11); p = 0.200
Resuscitated cardiac arrest, HR (95% CI) [2]: 1.02 (0.14-7.22); p = 0.986
Secondary Composite Endpoint, HR (95% CI) [2]: 0.92 (0.66-1.28); p = 0.629
Stroke, HR (95% CI) [2]: 0.19 (0.04-0.84); p = 0.029
Urgent hospitalization for angina requiring coronary revascularization, HR (95% CI) [2]: 0.61 (0.32-1.16); p = 0.131
Time to first positively adjudicated primary endpoint, HR (95% CI) ([0-4] days, adjusted Cox model, colchicine vs. placebo): 0.58 (0.36; 0.89)
Time to first positively adjudicated primary endpoint, HR (95% CI) ([0-4] days, adjusted Cox model, colchicine vs. placebo, listed as colchicine): 0.58
Time to first positively adjudicated primary endpoint, HR (95% CI) ([0-4] days, basic Cox model, colchicine vs. placebo): 0.57 (0.37; 0.87)
Time to first positively adjudicated primary endpoint, HR (95% CI) ([0-5] days, adjusted Cox model, colchicine vs. placebo, listed as colchicine): 0.68 (0.45-1.02)
Time to first positively adjudicated primary endpoint, HR (95% CI) ([0-5] days, basic Cox model, colchicine vs. placebo): 0.67 (0.45; 1.01)
Time to first positively adjudicated primary endpoint, HR (95% CI) ([5-20] days, adjusted Cox model, colchicine vs. placebo): 0.84 (0.64; 1.11)
Time to first positively adjudicated primary endpoint, HR (95% CI) ([5-20] days, basic Cox model, colchicine vs. placebo): 0.83 (0.63; 1.09)
Time to first positively adjudicated primary endpoint, HR (95% CI) ([6-30] days, adjusted Cox model, colchicine vs. placebo): 0.35 (0.60, 1.05)
Time to first positively adjudicated primary endpoint, HR (95% CI) ([6-30] days, basic Cox model, colchicine vs. placebo): 0.78 (0.59; 1.03)
reduction in the risk of the composite primary endpoint (colchicine initiated between days 0 and 3, vs placebo): 48%
Positively adjudicated primary endpoint No, % of patients [3]: (95.6%)
Positively adjudicated primary endpoint No, no. of patients [3]: 734 no.
Positively adjudicated primary endpoint Yes, % of patients [3]: (4.4%)
Positively adjudicated primary endpoint Yes, no. of patients [3]: 34 no.
Positively adjudicated primary endpoint No, % of patients [4]: (95.3%)
Positively adjudicated primary endpoint No, no. of patients [4]: 819 no.
Positively adjudicated primary endpoint Yes, % of patients [4]: (4.7%)
Positively adjudicated primary endpoint Yes, no. of patients [4]: 40 no.
Positively adjudicated primary endpoint No, % of patients [5]: (94.1%)
Positively adjudicated primary endpoint No, no. of patients [5]: 1463 no.
Positively adjudicated primary endpoint Yes, % of patients [5]: (5.9%)
Positively adjudicated primary endpoint Yes, no. of patients [5]: 91 no.
Positively adjudicated primary endpoint No, % of patients [6]: (94.2%)
Positively adjudicated primary endpoint No, no. of patients [6]: 1378 no.
Positively adjudicated primary endpoint Yes, % of patients [6]: (5.8%)
Positively adjudicated primary endpoint Yes, no. of patients [6]: 85 no.
reduction of secondary efficacy endpoint (CV death, resuscitated cardiac arrest, MI or stroke) (early initiation of low-dose colchicine): 45%
